The subject of assay [1] is Aspergillus fumigatus. The assay is described as follows: Antifungal activity against Aspergillus fumigatus at 100 ug/ml after 72 hr. In kind it is functional. The following applies: for zone of inhibition at 100 µg/mL: read-out: DIZ.
For assay [2], the system named is Aspergillus niger. The assay can be described thus: Antifungal activity against Aspergillus niger at 100 ug/ml after 72 hr. In kind it is functional. To be noted: for zone of inhibition at 100 µg/mL: read-out: DIZ.
Assay [3] has as its system Candida albicans. The assay can be described thus: Antifungal activity against Candida albicans at 100 ug/ml after 18 to 48 hr. In kind it is functional. The following applies: for zone of inhibition at 100 µg/mL: read-out: DIZ.
The test system of assay [4] is Salmonella typhimurium. The assay can be described thus: Antibacterial activity against Salmonella enterica subsp. enterica serovar Typhimurium MTCC 98 at 30 ug/disc after 24 hr by filter paper disk method. It is filed as functional. The following applies: MTCC 98, 24 h, read-out: DIZ.
For assay [5], the system named is Escherichia coli. The assay can be described thus: Antibacterial activity against Escherichia coli K-12 at 30 ug/disc after 24 hr by filter paper disk method. The following applies: K-12, 24 h, read-out: DIZ. It is filed as functional.
The subject of assay [6] is Bacillus subtilis. The assay can be described thus: Antibacterial activity against Bacillus subtilis MTCC 121 at 30 ug/disk after 24 hr by filter paper disk method. To be noted: MTCC 121, 24 h, read-out: DIZ. It is filed as functional.
In assay [7] the test system is Staphylococcus aureus. The assay is described as follows: Antibacterial activity against Staphylococcus aureus SA 22 at 30 ug/disc after 24 hr by filter paper disk method. In kind it is functional. The following applies: SA 22, 24 h, read-out: DIZ.
Assay [8] relates to Escherichia coli. The assay is described as follows: Antibacterial activity against Escherichia coli K-12 at 100 ug/ml after 24 hr by filter paper disk method. To be noted: for zone of inhibition at 100 µg/mL: K-12, 24 h, read-out: DIZ. It is filed as functional.
The test system of assay [9] is Salmonella typhimurium. The assay can be described thus: Antibacterial activity against Salmonella enterica subsp. enterica serovar Typhimurium MTCC 98 at 100 ug/ml after 24 hr by filter paper disk method. In kind it is functional. To be noted: for zone of inhibition at 100 µg/mL: MTCC 98, 24 h, read-out: DIZ.
Assay [10] deals with Bacillus subtilis. The assay is described as follows: Antibacterial activity against Bacillus subtilis MTCC 121 at 100 ug/ml after 24 hr by filter paper disk method. The following applies: for zone of inhibition at 100 µg/mL: MTCC 121, 24 h, read-out: DIZ. In kind it is functional.
The test system of assay [11] is Staphylococcus aureus. The assay is described as follows: Antibacterial activity against Staphylococcus aureus SA 22 at 100 ug/ml after 24 hr by filter paper disk method. To be noted: for zone of inhibition at 100 µg/mL: SA 22, 24 h, read-out: DIZ. It is filed as functional.
For assay [12], the system named is Aspergillus fumigatus. The assay can be described thus: Antifungal activity against Aspergillus fumigatus at 30 ug/disk after 72 hr. It is filed as functional, organism-based.
Assay [13] relates to Aspergillus niger. The assay is described as follows: Antifungal activity against Aspergillus niger at 30 ug/disk after 72 hr. In kind it is functional, organism-based.
In assay [14] the test system is Candida albicans. The assay can be described thus: Antifungal activity against Candida albicans at 30 ug/disk after 18 to 48 hr. In kind it is functional, organism-based.

Active and inactive are the calls of the source. No cut-off for these calls is given here.

Consider `O=C(N[C@H](CO)[C@H](O)c1ccc([N+](=O)[O-])cc1)C(Cl)Cl` [CHLORAMPHENICOL], for which the “diameter of the inhibition zone (DIZ)” value in assay [1], in assay [2] and in assay [3] was “inactive” each time. Besides, the zone of inhibition at 30 µg/disc turned out to be 20 mm in [4], 25 mm in assay [5], 24 mm in assay [6] and 26 mm in assay [7].
On to `Cc1nn(-c2ccccc2)c(Cl)c1/C=C1\Sc2ccccc2NC1=O`, for which the “diameter of the inhibition zone (DIZ)” value in assay [1], in assay [2], in [9] and in assay [10] was “inactive” each time. Moreover, the zone of inhibition at 100 µg/mL in [3] stood at 15 mm; in assay [8] it was 8 mm; in assay [11], 14 mm.
With NYSTATIN, the inhibition zone (IZ) in assay [12] worked out at 18 mm; in assay [13], 18 mm; in assay [14], 20 mm. In addition, the “diameter of the inhibition zone (DIZ)” value in assay [8], in [9], in [10] and in assay [11] was “inactive” throughout.
On to `Cc1nn(-c2ccccc2)c(Cl)c1C=C1C(=O)OC(C)(C)OC1=O`, for which the “diameter of the inhibition zone (DIZ)” value in assay [1], in assay [2], in assay [8] and in assay [9] was “inactive” in each case. Besides, the zone of inhibition at 100 µg/mL amounted to 14 mm in assay [3], 15 mm in assay [10] and 19 mm in assay [11].
In the case of `CC1=NN(c2ccccc2)C(=O)/C1=C/c1c(C)nn(-c2ccccc2)c1Cl`, the zone of inhibition at 100 µg/mL was found to be 11 mm in assay [1]; 10 mm in [2]; 8 mm in [8]; 12 mm in [9]; 12 mm in [10]. The “diameter of the inhibition zone (DIZ)” value in [3] and in [11] was “inactive” in each case.
`Cc1nn(-c2ccccc2)c(Cl)c1C=C1C(=O)N(C)C(=O)N(C)C1=O`: the zone of inhibition at 100 µg/mL in [1] is 11 mm; in assay [2], 8 mm; in [3] it was 11 mm; in [8], 15 mm; in assay [9], 14 mm; in [10], 16 mm. Further, in [11], the zone of inhibition at 100 µg/mL was 20 mm.
In the case of `Cc1nn(-c2ccccc2)c(Cl)c1C=C1C(=O)c2ccccc2C1=O`, the zone of inhibition at 100 µg/mL in assay [1] is 10 mm; in [2] it was 8 mm; in assay [3] it was 12 mm; in assay [8] it was 17 mm; in [9] it was 15 mm; in [10], 8 mm. In addition, in [11], the zone of inhibition at 100 µg/mL was 12 mm.
With `Cc1nn(-c2ccccc2)c(Cl)c1C=C1C(=O)N(C)C(=S)N(C)C1=O`, the “diameter of the inhibition zone (DIZ)” value in assay [1] and in [2] was “inactive” in each case. Further, the zone of inhibition at 100 µg/mL was 16 mm in assay [3]; 15 mm in assay [8]; 17 mm in assay [9]; 8 mm in assay [10]; 12 mm in [11].
As for `Cc1nn(-c2ccccc2)c(Cl)c1C=C1C(=O)NC(=O)NC1=O`, the “diameter of the inhibition zone (DIZ)” value in assay [1], in assay [2] and in assay [3] was “inactive” throughout. In addition, the zone of inhibition at 100 µg/mL turned out to be 15 mm in assay [8], 12 mm in assay [9], 19 mm in [10] and 17 mm in [11].

For the origin of these results see ChEMBL document CHEMBL3046515, “Zn(Proline)2-catalyzed Knoevenagel condensation under solvent-free/aqueous conditions and biological evaluation of products” (2011).
